The values that follow come from US11098063B2, “Diazabicyclic substituted imidazopyrimidines and their use for the treatment of breathing disorders” (Bayer Aktiengesellschaft, priority 2017, dated 2021).

What all share (format): cell-based
Assay [1] has as its target T1, human TASK-3 (Homo sapiens (Human), UniProt Q9NPC2). Description: Two-electrode voltage clamp analysis of human TASK-3 channel in Xenopus laevis oocytes. As to conditions: human TASK-3 expressed in Xenopus laevis oocytes, room temperature. As for the experimental part:
(§1) B-1. In Vitro Electrophysiological Analysis of the Human TASK-1 and TASK-3 Channels Via Two-Electrode Voltage Clamp Technique in Xenopus laevis Oocytes
(§2) Xenopus laevis oocytes were selected as described elsewhere by way of illustration [Decher et al., FEBS Lett. 492, 84-89 (2001)]. Subsequently, the oocytes were injected with 0.5-5 ng of a cRNA solution coding for TASK-1 or TASK-3. For the electrophysiological analysis of the channel proteins expressed in the oocytes, the two-electrode voltage clamp technique [Stühmer, Methods Enzymol. 207, 319-339 (1992)] was used. The measurements were conducted as described [Decher et al., FEBS Lett. 492, 84-89 (2001)] at room temperature (21-22° C.) using a Turbo TEC 10CD amplifier (NPI), recorded at 2 kHz and filtered with 0.4 kHz. Substance administration was performed using a gravitation-driven perfusion system. Here, the oocyte is located in a measuring chamber and exposed to the solution stream of 10 ml/min. The level in the measuring chamber is monitored and regulated by sucking off the solution using a peristaltic pump.
On the technique in general: Two-electrode voltage clamp is typically applied to oocytes expressing channels or transporters.

Assay [2] addresses T1, human TASK-3. Put plainly: Inhibition of recombinant TASK-3 in stably transfected CHO cells (voltage-sensitive dye, KCl depolarization). As to conditions: depolarization by 40 mM potassium chloride. The gist of the method:
(§3)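 Stably transfected CHO cells loaded with a voltage-sensitive membrane-potential dye were depolarized with 40 mM KCl in the presence of compound. IC50 is the concentration blocking half of the KCl-induced depolarization.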

Assay [3] concerns the target T2, human TASK-1 (Homo sapiens (Human), UniProt O14649). Put plainly: Inhibition of recombinant TASK-1 in stably transfected CHO cells (voltage-sensitive dye, KCl depolarization). As to conditions: depolarization by 40 mM potassium chloride. In a few lines: as §3
Assay [4] has as its target T2, human TASK-1. Put plainly: Two-electrode voltage clamp analysis of human TASK-1 channel in Xenopus laevis oocytes. As to conditions: human TASK-1 expressed in Xenopus laevis oocytes, room temperature. The protocol:
as §1, §2

T1 sequence (Q9NPC2 whole entry): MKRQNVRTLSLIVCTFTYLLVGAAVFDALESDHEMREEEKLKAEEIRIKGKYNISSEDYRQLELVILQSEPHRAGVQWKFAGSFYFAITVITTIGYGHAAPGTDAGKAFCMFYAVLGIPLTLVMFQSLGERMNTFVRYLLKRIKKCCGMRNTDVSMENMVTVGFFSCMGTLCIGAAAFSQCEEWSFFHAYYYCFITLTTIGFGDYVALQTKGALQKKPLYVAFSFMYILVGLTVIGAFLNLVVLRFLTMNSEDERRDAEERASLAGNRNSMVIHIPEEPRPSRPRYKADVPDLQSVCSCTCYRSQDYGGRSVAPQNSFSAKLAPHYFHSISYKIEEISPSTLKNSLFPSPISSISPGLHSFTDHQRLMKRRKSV
T2 sequence (O14649 whole entry): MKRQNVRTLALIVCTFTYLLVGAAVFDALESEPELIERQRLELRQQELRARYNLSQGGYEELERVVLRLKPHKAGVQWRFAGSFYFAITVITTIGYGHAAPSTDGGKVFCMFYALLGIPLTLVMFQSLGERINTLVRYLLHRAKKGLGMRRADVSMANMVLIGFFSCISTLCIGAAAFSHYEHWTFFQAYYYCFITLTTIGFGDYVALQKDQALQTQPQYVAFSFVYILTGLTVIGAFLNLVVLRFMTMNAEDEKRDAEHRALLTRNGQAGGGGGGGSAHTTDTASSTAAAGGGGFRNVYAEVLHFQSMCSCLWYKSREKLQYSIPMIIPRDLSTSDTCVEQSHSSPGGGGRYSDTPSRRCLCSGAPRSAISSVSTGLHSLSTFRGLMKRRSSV

For `CC(C)c1ccc(-c2nc3ncccn3c2CN2CC3COCC(C2)N3C(=O)c2cccc(OC(F)F)n2)cc1` [Example 19, [6-(Difluoromethoxy)pyridin-2-yl](7-{[2-(4-isopropylphenyl)imidazo[1,2-a]pyrimidin-3-yl]methyl}-3-oxa-7,9-diazabicyclo[3.3.1]non-9-yl)methanone], the IC50 (usually the concentration at which inhibition is half-maximal) worked out at 774 ± 67.1 nM at human TASK-3 [1], 59 nM at human TASK-3 [2], 22 µM at human TASK-1 [3] and 239 ± 2.7 nM at human TASK-1 [4].

As to `COc1ccc(F)c(C(=O)N2CC3CCC2CN3Cc2c(-c3ccc(Cl)cc3)nc3ncccn23)n1` (centres unmarked) [Example 41], the IC50 was 71.8 ± 15.5 nM at human TASK-3 [1], 100 nM on human TASK-3 [2], 1.5 µM on human TASK-1 [3] and 44.4 ± 4.4 nM against human TASK-1 [4].
